Measurements reported in patent US9650395B2, “Antibacterial compounds and methods for use” (PTC Therapeutics, Inc., priority 2011, dated 2017).
Structures can show the parent of a compound that is named as a salt. Where two headings read alike, the source gives them in different places.

Tests used:
[1] = tested on: Haemophilus influenzae (H. influenzae) 49247; assay: Antibacterial activity, MIC, H. influenzae 49247; assay type: cell-based; settings: H. influenzae 49247; for MIC: Haemophilus influenzae, read-out: MIC 49247
Summary of the method: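 Antibacterial activity against the Gram-negative organism Haemophilus influenzae strain 49247 was measured by microbroth dilution. The minimum inhibitory concentration (MIC) was taken as the lowest drug concentration that stopped bacterial growth from being visible to the naked eye under the test conditions.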

[2] = tested on: control Gram-negative E. coli 25922 strain; assay: Antibacterial activity, microbroth dilution MIC, E. coli 25922; assay type: cell-based, Escherichia coli; settings: E. coli 25922, microbroth dilution; for MIC: Escherichia coli, read-out: MIC, 25922
[3] = tested on: super sensitive Gram-negative Escherichia coli (E. coli) BAS849; assay: Antibacterial activity, microbroth dilution MIC, E. coli BAS849; assay type: cell-based; settings: for MIC: Escherichia coli, read-out: MIC, BAS849
[4] = tested on: E. coli ELZ4251 (MDR clinical isolate); assay: Antibacterial activity, MIC, MDR E. coli ELZ4251; assay type: cell-based, Escherichia coli; settings: E. coli ELZ4251, MDR clinical isolate; for MIC: Escherichia coli, read-out: MIC ELZ4251
[5] = tested on: Klebsiella pneumoniae (K. pneumoniae) 35657; assay: Antibacterial activity, MIC, K. pneumoniae 35657; assay type: cell-based; settings: for MIC: Klebsiella pneumoniae
[6] = tested on: resistant K. pneumoniae MXX1232 (MDR clinical isolate); assay: Antibacterial activity, MIC, resistant K. pneumoniae MXX1232; assay type: cell-based, Klebsiella pneumoniae; settings: resistant K. pneumoniae MMX1232, MDR clinical isolate; for MIC: Klebsiella pneumoniae, read-out: MIC MMX1232
[7] = tested on: Acinetobacter baumannii (A. baumannii) BAA747; assay: Antibacterial activity, MIC, A. baumannii BAA747; assay type: cell-based; settings: A. baumannii BAA747; for MIC: Acinetobacter baumannii, read-out: MIC BAA747
[8] = tested on: resistant A. baumannii MXX2240 (MDR clinical isolate); assay: Antibacterial activity, MIC, resistant A. baumannii MXX2240; assay type: cell-based, Acinetobacter baumannii; settings: resistant A. baumannii MMX2240, MDR clinical isolate; for MIC: Acinetobacter baumannii, read-out: MIC MMX2240
[9] = tested on: E. coli ELZ4000 (MDR clinical isolate); assay: Antibacterial activity, MIC, MDR E. coli ELZ4000; assay type: cell-based, Escherichia coli; settings: E. coli ELZ4000, MDR clinical isolate; for MIC: Escherichia coli, read-out: MIC ELZ4000
[10] = tested on: Gram-positive Staphylococcus aureus (S. aureus) 29213; assay: Antibacterial activity, microbroth dilution MIC, S. aureus 29213; assay type: cell-based; settings: S. aureus 29213, microbroth dilution; for MIC: Staphylococcus aureus, read-out: MIC, 29213
[11] = tested on: Pseudomonas aeruginosa (P. aeruginosa) 27853; assay: Antibacterial activity, MIC, P. aeruginosa 27853; assay type: cell-based; settings: P. aeruginosa 27853; for MIC: Pseudomonas aeruginosa, read-out: MIC 27853
Excerpt: (§1) The antibacterial activity from a microbroth dilution method may be presented as the minimum inhibitory concentration (MIC in […]). The MIC value is the lowest concentration of a drug which prevents macroscopically visible bacterial growth under test conditions.
Antibacterial activity of test compounds against the Gram-negative bacterium Pseudomonas aeruginosa (P. aeruginosa) 27853 is shown in Table 5.

[12] = tested on: Moraxella catarrhalis (M. catarrhalis) 25238; assay: Antibacterial activity, MIC, M. catarrhalis 25238; assay type: cell-based; settings: M. catarrhalis 25238; for MIC: Moraxella catarrhalis, read-out: MIC 25238
[13] = tested on: quinolone resistant E. coli LZ3111; assay: Antibacterial activity, MIC, quinolone resistant E. coli LZ3111; assay type: cell-based, Escherichia coli; settings: for MIC: Escherichia coli, read-out: MIC, LZ3111
Excerpt: as §1
Mutations in these regions are known to confer a high level resistance to the quinolone class of antibiotics.

[14] = tested on: Neisseria meningitidis (N. meningitidis) 13090; assay: Antibacterial activity, MIC, N. meningitidis 13090; assay type: cell-based; settings: N. meningitidis 13090; for MIC: Neisseria meningitidis, read-out: MIC 13090
[15] = E. coli BAS849, microbroth dilution

| SMILES | MIC [1] | MIC [2] | MIC [3, 15] | MIC [4] | MIC [5] | MIC [6] | MIC [7] | MIC [8] | MIC [9] | MIC [10] | MIC [11] | MIC [12] | MIC [13] | MIC [14] | further results |
| --- | --- | --- | --- | --- | --- | --- | --- | --- | --- | --- | --- | --- | --- | --- | --- |
| Cc1c(-c2ccc(N3C[C@@H]4[C@@H](N)[C@@H]4C3)cc2)[nH]c(=O)c(C(=O)O)c1O.Cl [Cpd 259, 6-{4-[(1R,5S,6s)-6-amino-3-azabicyclo[3.1.0]hex-3-yl]phenyl}-4-hydroxy-5-methyl-2-oxo-1,2-dihydropyridine-3-carboxylic acid hydrochloride] |  |  |  |  |  |  |  |  |  |  |  |  |  |  | MIC 49247 [1]: *** (an MIC value between >1.0 μg/mL and ≦3.5 μg/mL is indicated by three stars (***)); MIC, 25922 [2]: *** (an MIC value between >1.0 μg/mL and ≦3.5 μg/mL is indicated by three stars (***)); MIC, BAS849 [3, 15]: **** (an MIC value of ≦1.0 μg/mL is indicated by four stars (****)); MIC ELZ4251 [4]: ** (an MIC value between >3.5 μg/mL and ≦12.5 μg/mL is indicated by two stars (**)); MIC 35657 [5]: *** (an MIC value between >1.0 μg/mL and ≦3.5 μg/mL is indicated by three stars (***)); MIC MMX1232 [6]: * (an MIC value between >12.5 μg/mL and ≦150 μg/mL is indicated by a single star (*)); MIC BAA747 [7]: ** (an MIC value between >3.5 μg/mL and ≦12.5 μg/mL is indicated by two stars (**)); MIC MMX2240 [8]: * (an MIC value between >12.5 μg/mL and ≦150 μg/mL is indicated by a single star (*)); MIC ELZ4000 [9]: ** (an MIC value between >3.5 μg/mL and ≦12.5 μg/mL is indicated by two stars (**)); MIC, 29213 [10]: * (an MIC value between >12.5 μg/mL and ≦150 μg/mL is indicated by a single star (*)); MIC 27853 [11]: * (an MIC value between >12.5 μg/mL and ≦150 μg/mL is indicated by a single star (*)); MIC 25238 [12]: ** (an MIC value between >3.5 μg/mL and ≦12.5 μg/mL is indicated by two stars (**)); MIC, LZ3111 ([13]; quinolone resistant E. coli LZ3111): *** (an MIC value between >1.0 μg/mL and ≦3.5 μg/mL is indicated by three stars (***)); MIC 13090 [14]: **** (an MIC value of ≦1.0 μg/mL is indicated by four stars (****)) |
| CCc1c(-c2ccc(N3C[C@H]4CC[C@@H](N(C)C)[C@H]4C3)cc2)[nH]c(=O)c(C(=O)O)c1O.Cl [Cpd 263, 6-{4-[(3aR,4R,6aS)-4-(dimethylamino)hexahydrocyclopenta[c]pyrrol-2(1H)-yl]phenyl}-5-ethyl-4-hydroxy-2-oxo-1,2-dihydropyridine-3-carboxylic acid hydrochloride] | 3.5 to 12.5 mg/L | 1 to 3.5 mg/L | < 1 mg/L | 12.5 to 150 mg/L | 3.5 to 12.5 mg/L | 12.5 to 150 mg/L | 3.5 to 12.5 mg/L | 12.5 to 150 mg/L | 12.5 to 150 mg/L | 12.5 to 150 mg/L | 12.5 to 150 mg/L | 1 to 3.5 mg/L | 3.5 to 12.5 mg/L | 1 to 3.5 mg/L |  |
| CCc1c(-c2ccc(N3C[C@H]4CC[C@H](N)[C@H]4C3)cc2)[nH]c(=O)c(C(=O)O)c1O.O=C(O)C(F)(F)F [Cpd 265, 6-{4-[(3aR,4S,6aS)-4-aminohexahydrocyclopenta[c]pyrrol-2(1H)-yl]phenyl}-5-ethyl-4-hydroxy-2-oxo-1,2-dihydropyridine-3-carboxylic acid trifluoroacetate] | 12.5 to 150 mg/L | 3.5 to 12.5 mg/L |  | 3.5 to 12.5 mg/L | 3.5 to 12.5 mg/L | 12.5 to 150 mg/L | 12.5 to 150 mg/L | 12.5 to 150 mg/L | 12.5 to 150 mg/L | 12.5 to 150 mg/L | 12.5 to 150 mg/L | 3.5 to 12.5 mg/L | 3.5 to 12.5 mg/L | 1 to 3.5 mg/L | MIC [3]: 1 to 3.5 mg/L |
| CCc1c(-c2ccc(N3CC4CCCNC4C3)cc2)[nH]c(=O)c(C(=O)O)c1O.Cl (centres unmarked) [Cpd 272, 5-ethyl-4-hydroxy-6-[4-(octahydro-6H-pyrrolo[3,4-b]pyridin-6-yl)phenyl]-2-oxo-1,2-dihydropyridine-3-carboxylic acid hydrochloride] | < 1 mg/L | < 1 mg/L | < 1 mg/L | 1 to 3.5 mg/L | < 1 mg/L | 12.5 to 150 mg/L | 1 to 3.5 mg/L | 3.5 to 12.5 mg/L | 3.5 to 12.5 mg/L | 3.5 to 12.5 mg/L | 3.5 to 12.5 mg/L | < 1 mg/L | < 1 mg/L | < 1 mg/L |  |
| CCc1c(-c2ccc(N3C[C@@H]4[C@H](C3)[C@H]4NC)cc2)[nH]c(=O)c(C(=O)O)c1O [Cpd 270, 5-ethyl-4-hydroxy-6-{4-[(1R,5S,6s)-6-(methylamino)-3-azabicyclo[3.1.0]hex-3-yl]phenyl}-2-oxo-1,2-dihydropyridine-3-carboxylic acid hydrochloride] | < 1 mg/L | < 1 mg/L | < 1 mg/L | 3.5 to 12.5 mg/L | < 1 mg/L | 12.5 to 150 mg/L | < 1 mg/L | 12.5 to 150 mg/L | 12.5 to 150 mg/L | 3.5 to 12.5 mg/L | 1 to 3.5 mg/L | < 1 mg/L | 1 to 3.5 mg/L | < 1 mg/L |  |
| CCc1c(-c2ccc(N3C[C@H]4CCC[C@H](NC)[C@H]4C3)cc2)[nH]c(=O)c(C(=O)O)c1O.Cl [Cpd 268, 5-ethyl-4-hydroxy-6-{4-[(3aR,4S,7aS)-4-(methylamino)octahydro-2H-isoindol-2-yl]phenyl}-2-oxo-1,2-dihydropyridine-3-carboxylic acid hydrochloride] | 12.5 to 150 mg/L | 3.5 to 12.5 mg/L | 1 to 3.5 mg/L | 3.5 to 12.5 mg/L | 12.5 to 150 mg/L | 12.5 to 150 mg/L | 12.5 to 150 mg/L | 12.5 to 150 mg/L | 12.5 to 150 mg/L | 3.5 to 12.5 mg/L | 12.5 to 150 mg/L | 3.5 to 12.5 mg/L | 1 to 3.5 mg/L | 3.5 to 12.5 mg/L |  |
| CCc1c(-c2ccc(N3CCC(N4CCCC4)C3)cc2)[nH]c(=O)c(C(=O)O)c1O.Cl (centres unmarked) [Cpd 257, 6-[4-(1,3′-bipyrrolidin-1′-yl)phenyl]-5-ethyl-4-hydroxy-2-oxo-1,2-dihydropyridine-3-carboxylic acid hydrochloride] | 1 to 3.5 mg/L | < 1 mg/L | < 1 mg/L | 1 to 3.5 mg/L | 1 to 3.5 mg/L | 12.5 to 150 mg/L | 1 to 3.5 mg/L | 12.5 to 150 mg/L | 3.5 to 12.5 mg/L | 12.5 to 150 mg/L | 12.5 to 150 mg/L | 1 to 3.5 mg/L | 3.5 to 12.5 mg/L | < 1 mg/L |  |
